From patent publication US5837548A, “Treatment of inflammation by inhibition of lipid body formation” (Beth Israel Hospital, priority 1995, dated 1998)

Tests used:
human neutrophils = assay: cis-unsaturated fatty acid-induced lipid body formation in human neutrophils (osmium staining, light microscopy enumeration); format: cell-based; details: human neutrophils
Experimental: Neutrophils were purified from fresh human blood obtained by venipuncture from healthy adult volunteers and collected into acidified citrate. After addition of 6% dextran 70 (McGaw, Irvine, Calif.), RBCs were allowed to sediment for 1 hour at room temperature. The leukocyte-rich supernatant was overlaid onto an equal volume of Ficoll-Paque gradient (Piscataway, N.J.), and centrifuged at 400×g for 20 min. […] Residual RBCs were lysed with hypotonic saline.
Human leukocytes (10^6 cells/mL) were incubated with varying concentrations of arachidonic acid (AA), oleic acid (OA) or vehicle at 37° C. in a 5% CO2 /95% O2 atmosphere, and after 1 hour leukocytes (10^5 cells per slide) were cytocentrifuged (550 rpm, 5 min) onto glass slides. During inhibitory studies, neutrophils were pretreated for 1 hour with varying concentrations of enzyme inhibitors, protein synthesis inhibitors, or vehicle as indicated. When PKC inhibitors were used, the pre-incubation time was reduced to 30 minutes to avoid toxic effects to the cells. […] Stock solutions for A23187, D609, U-73122, and indomethacin were prepared in DMSO and stored at -20° C. Aliquots were diluted in Ca^++ /Mg^++ fee HBSS to the indicated concentration immediately prior to use. […] The morphology of fixed cells was observed, and lipid bodies were enumerated with phase contrast microscopy and a 100× objective lens in 50 consecutively scanned leukocytes.
Results were expressed as mean±SEM and were analyzed statistically by means of the analysis of variance followed by the Newman-Keuls-Student test with the level of significance set at p<0.05. Correlation coefficients were determined by linear regression, and correlation analysis was performed by Fisher's r to z transformation with the level of significance set at p<0.05.
^1 Neutrophils (10^6 /ml) were pretreated with protein kinase C
(actinomycin D, cycloheximide) for 30 min or with phospholipase C
inhibitors (D609, U73122) for 1 h. The cells were then stimulated with
vehicle, arachidonic acid (15 μM), or oleic acid (10 μM), for 1 h.
Results are mean ± SEM from fifty consecutively counted neutrophils.
Statistically significant differences between the agonist alone and the
inhibitor are represented by an asterisk(*). Percent inhibition has been
calculated after subtracting out the basal number of lipid bodies/PMN
present prior to stimulation.
^1 Neutrophils (10^6 /ml) were pretreated with the NSAID or
vehicle for 1 h then stimulated with vehicle, arachidonic acid, or oleic
± SEM from fifty consecutively counted neutrophils. Statistically
significant differences between the agonist alone and the NSAID are
represented by an asterisk (*). Percent inhibition has been calculated
after subtracting out the basal number of lipid bodies/PMN present prior

[1] = system: human eosinophils (LTC4 production); assay: LTC4 production by human eosinophils (priming, A23187 stimulation, ELISA); format: cell-based
Experimental: FIG. 2A is a graph illustrating the effect of arachidonic acid (AA) and oleic acid (OA) on induction of lipid body formation (black) and priming effects (white) for enhanced leukotriene C4 (LTC4) by human eosinophils. Eosinophils (10^6 /mL) were stimulated for one hour with arachidonic acid (3.7, 7.5, 15 μM) or oleic acid (2.5, 5, 10 μM). Lipid bodies were enumerated using light microscopy following osmium staining. The concentration of LTC4 in the supernatant was measured by ELISA after incubation with A23187 (0.5 μM) for 15 minutes at 37° C. Data are expressed as mean from 2 independent assays performed in duplicate.
FIG. 5B is a graph showing that aspirin inhibits cis-unsaturated fatty acid-induced priming for enhanced leukotriene C4 (LTC4) production in human eosinophils. Striped and open columns represent vehicle treated cells and aspirin treated cells, respectively. Cells (10^6 /mL) were pretreated with aspirin (10 μg/mL) or vehicle for one hour and then stimulated with OA (10 μM) or vehicle for one hour. The concentration of LTC4 in the supernatant was measured by ELISA after incubation with A23187 (0.5 μM) for 15 minutes at 37° C. Data are expressed as mean from 2-4 independent assays performed in duplicate. The statistically significant difference between the vehicle alone and the agonist is represented by a cross. Statistically significant differences due to pretreatment with aspirin are indicated by an asterisk.
After the incubation time, a sample was taken for lipid body enumeration and the cells were washed in Ca^++ /Mg^++ free HBSS. Leukocytes were resuspended in 1 mL of HBSS containing Ca^++ /Mg^++ and then stimulated with A23187 (0.5 μM) for 15 min. The reaction was stopped on ice, and the samples were centrifuged at 1500 rpm for 10 min at 4° C. The concentrations of PGE2, LTB4, and LTC4 in the supernatants were assayed by ELISA according to the manufacturer's instructions (Cayman, Ann Arbor, Mich.).

colorectal cancer = details: humans taking drug regularly vs persons not taking; cited from earlier work
[2] = system: peritoneal macrophages from wild type mice; assay: lipid body formation in peritoneal macrophages from wild type mice; format: cell-based, mouse; details: for induction of lipid bodies in macrophages: wild-type mouse, AA 3.7-15 μM or OA 2.5-10 μM
Experimental: (§1) FIG. 4 is a graph illustrating the effects of arachidonic acid and oleic acid on lipid body formation in peritoneal macrophages from wild type (+/+) and cyclooxygenase-1 knockout (-/-) mice. The agonists AA and OA are represented by the square and circle symbols, respectively. The closed symbols represent the wild type mice; the open symbols represent the cyclooxygenase-1 knockout mice. Macrophages (10^6 /mL) were incubated with the agonists AA and OA at varying concentrations for an hour. Lipid bodies were enumerated using light microscopy following osmium staining. Each point represents the mean±SEM from fifty consecutively scanned macrophages.
(§2) Cyclooxygenase-1 and cyclooxygenase-2 knockout mice were generated as recently described (Morham et al., Cell 83:473-482 (1995); Langenbach et al., Cell 83:483-492 (1995)). All experiments were carried out with male 8-12 week old mice. Macrophages from cyclooxygenase genetically deficient mice and wild-type litter mates were obtained by lavaging the peritoneal cavity with 5 mL of cold RPMI containing heparin (20 IU/mL).
(§3) ^1 Peritoneal macrophages from wild type and COX 1 knockout mice were
(§4) pretreated with the NSAID or vehicle for 1h and then stimulated with
(§5) arachidonic acid (AA, 15 μM) or vehicle for 1h. Results are mean ±
(§6) SEM from fifty consecutively counted macrophages. The statistically

[3] = system: peritoneal macrophages from COX 1 knockout mice; assay: lipid body formation in peritoneal macrophages from cyclooxygenase-1 knockout mice; format: cell-based, mouse; details: for induction of lipid body formation in macrophages: cyclooxygenase-1 deficient mice, AA 3.7-15 μM or OA 2.5-10 μM
Experimental: as §1, §2, §3, §4, §5, §6

[4] = system: macrophages from cyclooxygenase-2 deficient mice; assay: lipid body formation in macrophages from cyclooxygenase-2 deficient mice; format: cell-based, mouse; details: AA 3.7-15 μM or OA 2.5-10 μM
Experimental: as §2

[5] = system: wild-type mouse neutrophils; assay: lipid body formation in wild-type mouse neutrophils; format: cell-based; details: AA 3.7-15 μM or OA 2.5-10 μM
[6] = staurosporine 0.1-1.0 μM, aspirin 10 μg/mL, others as in Tables 1 and 2
[7] = Homo sapiens, Eosinophil, 1 h, read-out: fold increase in production of LTC4

Row | SMILES | inhibition of arachidonic acid-induced lipid body formation (human neutrophils; [6]) | inhibition of oleic acid-induced lipid body formation (human neutrophils; [6]) | inhibition of calcium ionophore-induced LTC4 production ([1]; cells not pre-stimulated with cis-unsaturated fatty acids) | inhibition of oleic acid-induced priming for enhanced LTC4 production ([1]; eosinophils, 10 μg/mL, OA 10 μM) | lower risk of developing colorectal cancer (colorectal cancer) | increase in number of lipid bodies (human neutrophils) | induction of lipid bodies in macrophages [2] | induction of lipid body formation in macrophages [3] | induction of lipid body formation in macrophages [4] | fold induction at 10 µM [1, 7] | increase in production of LTC4 ([1]; eosinophils) | correlation (r) between number of lipid bodies and priming for enhanced LTC4 release ([1]; oleic acid, leukocytes, p<0.05) | induction of lipid bodies in neutrophils [5] | lipid bodies (mean ± SEM)/macrophage ([2]; wild type, AA 15 μM alone, 1 h, no NSAID) | lipid bodies (mean ± SEM)/macrophage ([3]; COX 1 knockout, AA 15 μM alone, 1 h, no NSAID) | fold induction at 15 µM [1, 7]
1 | CC(=O)Oc1ccccc1C(=O)O [aspirin] | significantly inhibited | significantly inhibited | failed to inhibit | significantly inhibited | 40-50% | – | – | – | – | – | – | – | – | – | – | –
2 | CCCCCCCC/C=C\CCCCCCCC(=O)O [oleic acid] | – | – | – | – | – | dose-dependent increase in the number of lipid bodies | can also be stimulated in vitro to produce lipid bodies | induced lipid body formation | induced lipid body formation | 1.7 | dose-dependent increase in production | 0.95 | can also be stimulated in vitro to produce lipid bodies | – | – | –
3 | CCCCC/C=C\C/C=C\C/C=C\C/C=C\CCCC(=O)O [arachidonic acid] | – | – | – | – | – | dose-dependent increase in the number of lipid bodies | can also be stimulated in vitro to produce lipid bodies | induced lipid body formation | induced lipid body formation | – | dose-dependent increase in production | – | can also be stimulated in vitro to produce lipid bodies | 6.8 ± 0.3 lipid bodies/macrophage | 7.0 ± 0.5 lipid bodies/macrophage | 1.4
